Measurements reported in PMC5175396, “Cytotoxicity of Plumbagin, Rapanone and 12 other naturally occurring Quinones from Kenyan Flora towards human carcinoma cells” (BMC Pharmacology & Toxicology, 2016).

Experiments:
Format in all cases: cell-based, human
[1] = Neutral red (NR) uptake cytotoxicity assay, Caco-2; settings: human; IC50 in CRL2120 normal fibroblasts divided by IC50 in Caco-2; read-out: selectivity index Caco-2 (converted)
Excerpt: (§1) Six human cancer cell lines and one normal cell line were used in this study. They included A549 human non-small cell lung cancer (NSCLC) cell line, obtained from the Institute for Fermentation, Osaka (IFO, Japan) and provided by Prof. Dr. Tansu Koparal (Anadolu University, Eskisehir, Turkey), SPC212 human mesothelioma cell line obtained from American Type Culture Collection (ATCC) and provided by Dr. Asuman Demiroğlu Zergeroğlu (Gebze Technical University, Kocaeli, Turkey), DLD-1 colorectal adenocarcinoma cell lines obtained from ATCC (CCL-221), Caco2 colorectal adenocarcinoma cells (ATCC, HTB-37) obtained from the ŞAP Institute of Turkey (Ankara), HepG2 hepatocarcinoma cells (ATCC, HB-8065) and MCF-7 breast adenocarcinoma cells (ATCC, HTB-22) were provided by Prof. Dr. Tansu Koparal (Anadolu University, Eskisehir, Turkey). The normal CRL2120 human skin fibroblasts were obtained from ATCC [CCD1094Sk (ATCC, CRL-2120)]. The cells were maintained as a monolayer in DMEM medium (Sigma-aldrich, Munich, Germany) medium supplemented with 10% fetal calf serum and 1% penicillin (100 U/mL)-streptomycin (100 μg/mL) in a humidified 5% CO2 atmosphere at 37 °C.
(§2) The cytotoxicity of samples was performed by NR uptake assay as previously described. This method is based on the ability of viable cells to incorporate and bind the supravital dye NR in the lysosomes. The procedure is cheaper and more sensitive than other cytotoxicity tests. […] Briefly, cells were detached by treatment with 0.25% trypsin/EDTA (Invitrogen) and an aliquot of 1 × 10^4 cells was placed in each well of a 96-well cell culture plate […]. The cells were allowed to attach overnight and subsequently treated with different concentrations of the 14 compounds. Each of the studied samples was immediately added in varying concentrations in additional 100 μL of culture medium to obtain a total volume of […]/well. After 72 h incubation in humidified 5% CO2 atmosphere at 37 °C, the medium was removed and 200 μL fresh medium containing 50 μg/mL NR was added to each well and incubation continued for an additional 3 h at 37 °C in 5% CO2 atmosphere. The dye medium was then removed and each well was then washed rapidly with 200 μL phosphate buffer saline (PBS) followed by addition of 200 μL of acetic acid-water-ethanol in water (1:49:50). The plates were kept for 15 min at room temperature to extract the dye and then shaken for a few minutes on a GFL 3012 shaker (Gesellschaft für Labortechnik mbH, Burgwedel, Germany). Absorbance was measured on ELx 808 Ultra Microplate Reader (Biotek) equipped with a 540 nm filter. Each assay was done at least three times, with three replicates each. The viability was evaluated based on a comparison with untreated cells. The IC50 values represent the sample’s concentrations required to inhibit 50% of cell proliferation and were calculated from a calibration curve by linear regression using Microsoft Excel.

[2] = tested on: Caco2 colorectal adenocarcinoma cells; assay: Neutral red (NR) uptake cytotoxicity assay, Caco-2; settings: Homo sapiens, Caco-2; neutral red assay, 72 h incubation
Excerpt: as §1, §2

[3] = tested on: six tested cancer cell lines (A549, SPC212, DLD-1, Caco-2, MCF-7, HepG2); assay: Neutral red uptake assay, statements over the six tested cancer cell lines
Excerpt: as §1, §2

Row | SMILES | selectivity ratio at 72 h [1] | IC50 [2] [µM] | IC50 ([3]; Homo sapiens, bound valid for all six cancer cell lines, neutral red assay) [µM] | selectivity indexes (CRL2120 vs carcinoma cells), lower bound over the cancer cell lines ([3]; IC50 CRL2120 / IC50 cancer cell line)
1 | CCCCCCCCCCCCCC1=C(O)C(=O)C=C(O)C1=O [Compound 9, 2,5-dihydroxy-3-tridecyl-2,5-cyclohexadiene-1,4-dione] | 4.15 | 22.95 ± 0.13 | < 100 | –
2 | CC1=CC(=O)c2c(O)cccc2C1=O [Compound 4, 5-hydroxy-2-methyl-1,4-naphthalenedione] | 967 | 0.07 ± 0.01 | – | > 59
